ChEMBL document CHEMBL1133483, “Enhanced pneumocystis carinii activity of new primaquine analogues” (2000)

What was measured:
Format in all cases: functional
[1] = tested on: Pneumocystis carinii; experiment: Efficacy of compound was evaluated in rat infected with Pneumocystis carinii at a dose of 2 mg/Kg administered intraperitoneally
[2] = tested on: Pneumocystis carinii; experiment: Efficacy of compound was evaluated in rat infected with Pneumocystis carinii at a dose of 2 mg/Kg administered orally
[3] = tested on: Pneumocystis carinii; experiment: Efficacy of compound was evaluated in rat infected with Pneumocystis carinii at a dose of 2 mg/Kg administered subcutaneously

Compound | Infection score [1] | Infection score [2] | Infection score [3]
CCOc1ccc(Oc2c(OC)cc(NC(C)CCCN)c3nccc(C)c23)cc1 (stereo unspecified) | 0 |  | 
CCCCCCCOc1ccc(Oc2c(OC)cc(NC(C)CCCN)c3nccc(C)c23)cc1 (stereo unspecified) | 0.71 | 1.25 | 
CCCCCCCCCCCCCCCCOc1ccc(Oc2c(OC)cc(NC(C)CCCN)c3nccc(C)c23)cc1 (stereo unspecified) | 4.5 |  | 
COc1cc(Cc2cnc(N)nc2N)cc(OC)c1OC.Cc1cc(NS(=O)(=O)c2ccc(N)cc2)no1 [CO-TRIMOXAZOLE] | 1.31 |  | 
COc1cc(NC(C)CCCN)c2ncccc2c1 (stereo unspecified) [PRIMAQUINE] |  |  | 4.3
